# Measurements published in patent US10864196B2, “Modulators of the integrated stress pathway” (Calico Life Sciences LLC, priority 2016, dated 2020).
# Tested on: HEK293T cells carrying the ATF4 luciferase reporter
# Experiment: ATF4-Luc assay (in vitro model of VWMD)
# Type: cell-based
# Conditions: Homo sapiens, HEK-293T, 1 μg/mL tunicamycin, 7 hours, One Glo luminescence
# Protocol: In order to test exemplary compounds of the invention in a cellular context, a stable VWMD cell line was first constructed. The ATF4 reporter was prepared by fusing the human full-length ATF4 5′-UTR (NCBI Accession No. BC022088.2) in front of the firefly luciferase (FLuc) coding sequence lacking the initiator methionine as described in Sidrauski et al (eLife 2013). The construct was used to produce recombinant retroviruses using standard methods and the resulting viral supernatant was used to transduce HEK293T cells, which were then subsequently selected with puromycin to generate a stable cell line.
# HEK293T cells carrying the ATF4 luciferase reporter were plated on polylysine coated 384-well plates (Greiner Bio-one) at 30,000 cells per well. Cells were treated the next day with 1 μg/mL tunicamycin and 200 nM of a compound of Formula (I) for 7 hours. Luminescence was measured using One Glo (Promega) as specified by the manufacturer. Cells were maintained in DMEM with L-glutamine supplemented with 10% heat-inactivated FBS (Gibco) and Antibiotic-Antimycotic solution (Gibco).
# Table 2 below summarizes the EC50 data obtained using the ATF4-Luc assay for exemplary compounds of the invention.
row,Compound,EC50 [nM]
1,"O=C(COc1ccc(Cl)c(F)c1)NC12CCC(c3nnc(Oc4ccc(Cl)c(F)c4)o3)(CC1)C(O)C2 (stereo not drawn) [Compound 170, 2-(4-chloro-3-fluorophenoxy)-N-{4-[5-(4-chloro-3-fluorophenoxy)-1,3,4-oxadiazol-2-yl]-3-hydroxybicyclo[2.2.2]octan-1-yl}acetamide]",< 50
2,"COc1ccc(Oc2nnc(C34CC(NC(=O)COc5ccc(Cl)c(F)c5)(C3)C4)o2)cc1 [Compound 125, 2-(4-chloro-3-fluorophenoxy)-N-{3-[5-(4-methoxyphenoxy)-1,3,4-oxadiazol-2-yl]bicyclo[1.1.1]pentan-1-yl}acetamide]",250 to 1000
3,"Cc1cncc(OCc2nnc(C34CC(NC(=O)COc5ccc(Cl)c(F)c5)(C3)C4)o2)c1 [Compound 143, 2-(4-chloro-3-fluorophenoxy)-N-[3-(5-{[(5-methylpyridin-3-yl)oxy]methyl}-1,3,4-oxadiazol-2-yl)bicyclo[1.1.1]pentan-1-yl]acetamide]",250 to 1000
4,"O=C(COc1ccc(Cl)cc1)NC12CC(c3nnc(COc4ccc(Cl)cc4)o3)(C1)C2 [Compound 100, 2-(4-chlorophenoxy)-N-(3-{5-[(4-chlorophenoxy)methyl]-1,3,4-oxadiazol-2-yl}bicyclo[1.1.1]pentan-1-yl)acetamide]",50 to 250
5,"O=C(COc1ccc(Cl)c(F)c1)NC12CC(c3nc(COc4ccc(Cl)cc4)no3)(C1)C2 [Compound 110, 2-(4-chloro-3-fluorophenoxy)-N-(3-{3-[(4-chlorophenoxy)methyl]-1,2,4-oxadiazol-5-yl}bicyclo[1.1.1]pentan-1-yl)acetamide]",50 to 250
6,"O=C(COc1ccc(Cl)c(F)c1)NC12CC(c3nnc(Oc4cncc(C(F)(F)F)c4)o3)(C1)C2 [Compound 117, 2-(4-chloro-3-fluorophenoxy)-N-[3-(5-{[5-(trifluoromethyl)pyridin-3-yl]oxy}-1,3,4-oxadiazol-2-yl)bicyclo[1.1.1]pentan-1-yl]acetamide]",50 to 250
7,"N#Cc1cncc(OCc2nnc(C34CC(NC(=O)COc5ccc(Cl)c(F)c5)(C3)C4)o2)c1 [Compound 144, 2-(4-chloro-3-fluorophenoxy)-N-[3-(5-{[(5-cyanopyridin-3-yl)oxy]methyl}-1,3,4-oxadiazol-2-yl)bicyclo[1.1.1]pentan-1-yl]acetamide]",> 2000
8,"Cc1cccc(Oc2nnc(C34CC(NC(=O)COc5ccc(Cl)c(F)c5)(C3)C4)o2)c1 [Compound 135, 2-(4-chloro-3-fluorophenoxy)-N-{3-[5-(3-methylphenoxy)-1,3,4-oxadiazol-2-yl]bicyclo[1.1.1]pentan-1-yl}acetamide]",50 to 250
9,"O=C(COc1ccc(Cl)c(F)c1)NC12CC(c3nnc(Oc4ccccc4Cl)o3)(C1)C2 [Compound 127, 2-(4-chloro-3-fluorophenoxy)-N-{3-[5-(2-chlorophenoxy)-1,3,4-oxadiazol-2-yl]bicyclo[1.1.1]pentan-1-yl}acetamide]",250 to 1000
10,"O=C(COc1ccc(Cl)c(Cl)c1)NC12CC(c3nnc(COc4ccc(Cl)cc4)o3)(C1)C2 [Compound 109, N-(3-{5-[(4-chlorophenoxy)methyl]-1,3,4-oxadiazol-2-yl}bicyclo[1.1.1]pentan-1-yl)-2-(3,4-dichlorophenoxy)acetamide]",< 50
11,"Cc1cc(COCC(=O)NC23CC(c4nc(COc5ccc(Cl)cc5)no4)(C2)C3)no1 [Compound 112, N-(3-{3-[(4-chlorophenoxy)methyl]-1,2,4-oxadiazol-5-yl}bicyclo[1.1.1]pentan-1-yl)-2-[(5-methyl-1,2-oxazol-3-yl)methoxy]acetamide]",> 2000
12,"O=C(COc1ccc(Cl)c(F)c1)NC12CCC(c3nc(COc4ccc(C(F)(F)F)nc4)no3)(CC1)C(O)C2 (stereo not drawn) [Compound 166, 2-(4-chloro-3-fluorophenoxy)-N-{3-hydroxy-4-[3-({[6-(trifluoromethyl)pyridin-3-yl]oxy}methyl)-1,2,4-oxadiazol-5-yl]bicyclo[2.2.2]octan-1-yl}acetamide]",250 to 1000
13,"O=C(COc1ccc(Cl)c(F)c1)NC12CC(c3nnc(Oc4ccccc4F)o3)(C1)C2 [Compound 137, 2-(4-chloro-3-fluorophenoxy)-N-{3-[5-(2-fluorophenoxy)-1,3,4-oxadiazol-2-yl]bicyclo[1.1.1]pentan-1-yl}acetamide]",250 to 1000
14,"COc1ccc(OCc2nnc(C34CC(NC(=O)COc5ccc(Cl)c(F)c5)(C3)C4)o2)cn1 [Compound 142, 2-(4-chloro-3-fluorophenoxy)-N-[3-(5-{[(6-methoxypyridin-3-yl)oxy]methyl}-1,3,4-oxadiazol-2-yl)bicyclo[1.1.1]pentan-1-yl]acetamide]",< 50
15,"CC(C)Oc1ccc(OCc2nnc(C34CC(NC(=O)COc5ccc(Cl)c(F)c5)(C3)C4)o2)cn1 [Compound 147, 2-(4-chloro-3-fluorophenoxy)-N-(3-{5-[({6-[(propan-2-yl)oxy]pyridin-3-yl}oxy)methyl]-1,3,4-oxadiazol-2-yl}bicyclo[1.1.1]pentan-1-yl)acetamide]",1000 to 2000
